Laboratory results as given in patent US20040005649A1, “Anti-stilbene antibodies” (priority 2003, published 2004).

Assays:
mAb 19G2 = assay: Binding of stilbene-tethered C-nucleosides to blue-fluorescent mAb 19G2 (fluorescence, crystal soak); design: species or system mice; conditions: for emission of mAb 19G2 crystal after soaking: crystal soaked with ligand, UV lamp
Method: Each C-nucleoside was tested for the ability to bind to the blue-fluorescent monoclonal antibody (mAb) 19G2. […] Subsequently, we acquired X-ray crystallographic data on both complexes primarily to obtain information regarding positioning of the nucleobase moiety with regard to the protein framework. The structures of the 19G2-9 and 19G2-18 complexes were determined to a resolution of 2.45 Å and 2.20 Å, respectively (Table 4). In both cases, the antibody structures differ by an RMSD of 0.61 Å and 0.50 Å from that of the previously determined 19G2-12 complex. The stilbene portion of both 9 and 18 is clear in 2σ density and could be readily modeled into the density as the trans-isomer. For both complexes, binding site amino acid residues within 5 Å of the stilbene are observed to be in the same conformation as in 19G2-12.
X-ray crystallography. Crystals of mAb 19G2 were soaked overnight with a 0.25 mM solution of either 9 or 18 (DMF stock solutions) in mother liquor from the crystal growth (12% polyethylene glycol, 0.1 M sodium acetate pH 4.75, 0.3 M magnesium chloride) containing 5% DMF. Formation of the complex in the crystal was assayed by the appearance of blue fluorescence from soaked crystals when illuminated by a hand-held UV lamp at 312 nm (Spectronics Corp.; Westbury, N.Y.). The crystals were soaked in a cryobuffer consisting of 20% glycerol, 0.25 mM 9 or 18, mother liquor, and 5% DMF and flash frozen in liquid nitrogen. X-ray diffraction was collected in-house with an FRD X-ray generator and a RAXISIVF^++ detector. Data was processed and scaled using HKL software package. The previously determined structure of the antibody (PDB ID CODE 1FL3) was used as a starting model for refinement. Multiple rounds of rigid body refinement, B-factor refinement, Powell minimization, simulated annealing in CNS and manual rebuilding in O were performed.

[1] = Steady-state UV absorption, fluorescence excitation and emission spectra, quantum yield; type: physicochemical
Method: (A) UV absorption. (B) Fluorescence excitation. Note: The 19G2-2 complex and free 2 each required a separate y-axis scale for side-by-side comparison of peak shapes. (C) Fluorescence emission. See note for (B). In all cases, see Table 2 for experimental conditions. Steady-state excitation and emission spectra were recorded using an SLM 8100 spectrofluorimeter (Spectronics Instruments) with a bandpass of 4 nm for excitation and emission.

[2] = Picosecond time-resolved emission, time-correlated single photon counting; type: physicochemical
Method: Measurements were obtained with picosecond excitation at 318 nm. Decays were measured at 380 nm (free 2, 16H10 and 25E5 complexes) or 410 nm (19G2 complex) by time-correlated single photon counting. Decays were recorded in 4096 channels with a time increment of 18 ps/channel and were normalized relative to the number of counts recorded in the peak channel. See Table 3 for experimental conditions.
Normalized time-resolved emission profiles of the 20F2-2 complex were recorded at 370 nm (purple) and 480 nm (blue). The solid lines are multiexponential fits to each decay. […] Decays were recorded in 4096 channels with a time increment of 4.9 ps/channel and were normalized relative to the number of counts recorded in the peak channel. See Table 3 for experimental conditions.
Dynamic spectroscopy. Picosecond time-resolved emission spectroscopy was used to further probe the dynamics of blue-fluorescent antibodies. Time-resolved emission decay profiles of free 2 and bound to EP2 mAbs were measured at room temperature by time-correlated single-photon counting (Table 3, FIG. 16).

[3] = 77° K in hydrophobic solvents and 193° K in glycerol; cited from earlier work
[4] = 20 μM mAb, 10 μM of 2 (or free stilbene), PBS pH 7.4, 5% DMF, 20° C
[5] = 20 μM mAb, 10 μM of 2 (or free stilbene), PBS, 5% DMF, 20° C

O=C(O)CCCC(=O)Nc1ccc(/C=C/c2ccccc2)cc1 [compound 2, 5-oxo-5-[[4-[(1E)-2-phenylethenyl]phenyl]amino]-pentanoic acid]
quantum yield (φf) of complex with mAb 19G2 (mAb 19G2): ~0.80
λem [1, 4]: 388 nm
λex [1, 4]: 325 nm
εmax [1, 5]: 33200 M⁻¹ cm⁻¹
φf lower than blue-fluorescent antibody complexes ([1]; free 2 in fluid solution): 30-40 fold
φf (fluorescence quantum yield) ([1]; reference quinine bisulfate, 20 μM mAb, 10 μM of 2, PBS, 5% DMF, 20° C, accurate to ±10%): 0.02
UV absorption bands ([1]; values in parentheses are shoulders/inflections, 20 μM mAb, 10 μM of 2, PBS, 5% DMF, 20° C): 320 nm
fluorescence decay components, τf ([2]; 20 μM mAb, 10 μM of 2 (or free 2), PBS, 5% DMF, 20° C): 0.071 ns
kr (radiative rate constant) ([2]; calculated as the inverse of τr): 0.28 ns^−1
τr (radiative lifetime) ([2]; calculated from τf and φf): 3.6 ns
knr (nonradiative rate constant) ([2]; calculated knr = [kr(1-φf)/φf]): 14 ns^−1
fluorescence lifetime ([2]; free in aqueous buffer, room temperature): ~70 ps

OCC1OC(c2ccc(COCCOCCOCc3ccc(C=Cc4ccccc4)cc3)cc2)CC1O [compound 18, 1,4-anhydro-2-deoxy-1-C-[4-[[2-[2-[[4-[(1E)-2-phenylethenyl]phenyl]methoxy]ethoxy]ethoxy]methyl]]phenyl]-D-erythro-pentitol]
quantum yield (φf) of complex with mAb 19G2 (mAb 19G2): comparable
emission of mAb 19G2 crystal after soaking (mAb 19G2): blue emission

O=C(CCCC(=O)Nc1ccc(/C=C/c2ccccc2)cc1)NCCc1ccc(C2C[C@H](O)[C@@H](CO)O2)cc1 (stereo partly drawn) [compound 9, N-[2-[4-[2-deoxy-D-erythro-pentofuranosyl]phenyl]ethyl]-N′-[4-[(1E)-2-phenylethenyl]phenyl]-pentanediamide, reference compound]
quantum yield (φf) of complex with mAb 19G2 (mAb 19G2): comparable
emission of mAb 19G2 crystal after soaking (mAb 19G2): blue emission
λem [1, 4]: 442 nm
εmax [1, 5]: 30000 M⁻¹ cm⁻¹

C(=C\c1ccccc1)/c1ccccc1 [compound 1, trans-stilbene]
φf [3]: 0.75
